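96-well plates; 48 h exposure; 5 concentrations. Endpoints by linear interpolation between flanking doses. Not reached: highest tested concentration assigned. GI50 is the concentration that inhibits growth by half. The concentration for full growth arrest is given as TGI.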
test system: M19-MEL melanoma; assay: DTP human tumour cell line panel, 48 h

`C=CCNC(=O)N(CCCC(NC(C)=O)C(=O)NCc1ccccc1)Cc1ccccc1` (centres undefined) and `c1ccc(C(c2ccccc2)c2cccnc2)cc1` cannot be ordered by TGI: greater than 100 µM for the first, greater than 100 µM for the second.

`C1=CC=C2NCCCCCCCNC3=CC=CC=CC3=NCCCCCCCN=C2C=C1` and `Cc1cc(NCCCCCCNc2cc(C)nc3cc(N(C)C)ccc23)c2ccc(N(C)C)cc2n1` cannot be ordered by TGI: greater than 100 µM for the first, greater than 100 µM for the second.

`COC(=O)/C(=N\NC(=O)C[N+](C)(C)C)C(C(=O)OC)C(=O)C(=O)Nc1ccccc1C(N)=O` (centres undefined) and `COCC(O)Cn1ccnc1[N+](=O)[O-]` (centres undefined) cannot be ordered by TGI: greater than 100 µM for the first, greater than 100 µM for the second.

`CC1CN(c2ccc(Cl)cc2)CC(C)OC(=O)O1` (centres undefined) and `OCC1C(/C=C/c2ccoc2)ON2CCCC12` (centres undefined) cannot be ordered by TGI: greater than 100 µM for the first, greater than 100 µM for the second.

test system: HCT-116 colon; assay: DTP human tumour cell line panel, 48 h

Point of comparison: `Nc1nc(N)c2nc(CNc3ccc(C(=O)NC(CC(=O)O)C(=O)O)cc3)cnc2n1` (centres undefined), GI50 0.0773 µM. Against it:
- N.N.N.N.N.[Cl-].[Co+3].c1ccc(-c2nn[n-]n2)cc1 — higher, > 100 µM
- C1COCCN1.C1COCCN1.NC1CCCCC1N.[Cl-].[Pt+2] (centres undefined) — higher, > 100 µM
- O=c1ccn(C2CC(O)C(CO)O2)c(=O)[nH]1 (centres undefined) — higher, > 5000 µM
- COc1cccc(-c2nn(-c3ccccc3)cc2-c2ccnc(NCCCNC(=O)Nc3ccc(Cl)c(Cl)c3)c2)c1 — 30-fold higher, 2.33 µM
- O=C1c2cccc(NCCN=Cc3cc([N+](=O)[O-])ccc3O)c2C(=O)c2c(NCCN=Cc3cc([N+](=O)[O-])ccc3O)cccc21 — 17-fold higher, 1.28 µM
- CC(=O)OC[C@]12CC[C@@H](C(=O)CBr)[C@@H]1[C@H]1CC[C@@H]3[C@@]4(C)CCCNC(C)(C)[C@@H]4CC[C@@]3(C)[C@]1(C)CC2 — 24-fold higher, 1.84 µM
- COc1cc2c3c(n(CCCCN)c(=O)c2cc1OC)-c1cc2c(cc1C3=O)OCO2 — 3-fold higher, 0.234 µM
- N#CCCN(CCCN(CCCN(C(=O)Nc1ccccc1)c1ccccc1)C(=O)Nc1ccccc1)C(=O)Nc1ccccc1 — higher, > 100 µM
- C=CCC1(O)c2ccccc2C(=O)c2c(NCCN(CC(=O)OCC)CC(=O)OCC)cccc21 (centres undefined) — higher, > 100 µM
- COc1cccc(-n2nc(C)c3c(N/N=C(\C)c4ccncc4)ncnc32)c1 — higher, > 24.2 µM
- Cc1ccc(-c2nc(C#N)c(S(=O)(=O)n3nc(C)cc3N)o2)cc1 — 41-fold higher, 3.16 µM
- COc1cccc2c1ccc1nc3cccc(C(=O)N[C@H](C)CN(C)C)c3nc12 — 2-fold lower, 0.0379 µM
- NC(=O)c1ccc(I)c(N=O)c1 — 240-fold higher, 18.6 µM

Point of comparison: `COc1cccc(-c2nn(-c3ccccc3)cc2-c2ccnc(NCCCNC(=O)Nc3ccc(Cl)c(Cl)c3)c2)c1`, TGI 5.75 µM. Against it:
- N.N.N.N.N.[Cl-].[Co+3].c1ccc(-c2nn[n-]n2)cc1 — higher, > 100 µM
- COc1cccc2c1C(=O)c1c(O)c3c(c(O)c1C2=O)CC(O)(C(O)CO)CC3OC1CC(N2CCOCC2)C(O)C(C)O1 (centres undefined) — 40-fold lower, 0.143 µM
- C1COCCN1.C1COCCN1.NC1CCCCC1N.[Cl-].[Pt+2] (centres undefined) — higher, > 100 µM
- COC1OC(CBr)C(OC(=O)c2ccccc2)C(O)C1Br (centres undefined) — higher, > 100 µM
- C[C@]12CCC(=O)C=C1CC[C@@H]1C2CC[C@]2(C)Nc3c(cnn3-c3ccccc3)CC12 (some centres undefined) — higher, > 100 µM
- O=C(NC(=O)c1cn(CCN(CCO)C(=O)NCCCCCCNC(=O)N(CCO)CCn2cc(C(=O)NC(=O)OCc3ccccc3)c(=O)[nH]c2=O)c(=O)[nH]c1=O)OCc1ccccc1 — higher, > 100 µM
- CCOC1=C2C(=O)OC(=O)C2C2CCCCC2=C1 (centres undefined) — higher, > 100 µM
- Cc1cc2c(C)nn(Cc3ccccc3)c2c(C(N)=O)c1C — higher, > 100 µM
- c1ccc(C(c2ccccc2)c2cccnc2)cc1 — higher, > 100 µM
- C1=CC=C2NCCCCCCCNC3=CC=CC=CC3=NCCCCCCCN=C2C=C1 — higher, > 100 µM
- COC(=O)/C(=N\NC(=O)C[N+](C)(C)C)C(C(=O)OC)C(=O)C(=O)Nc1ccccc1C(N)=O (centres undefined) — higher, > 100 µM
- COCC(O)Cn1ccnc1[N+](=O)[O-] (centres undefined) — higher, > 100 µM
- O=c1ccn(C2CC(O)C(CO)O2)c(=O)[nH]1 (centres undefined) — higher, > 5000 µM
- O=C(N/C(=C/c1ccc(Cl)cc1Cl)c1nc2ccccc2s1)c1ccccc1 — higher, > 100 µM
- COc1c(O)cc2oc(-c3ccc(O)cc3)cc(=O)c2c1O — higher, > 100 µM
- COc1cc2ccccc2oc1=O — higher, > 100 µM
- Nc1nc(N)c2nc(CNc3ccc(C(=O)NC(CC(=O)O)C(=O)O)cc3)cnc2n1 (centres undefined) — higher, > 100 µM
- O=C1c2cccc(NCCN=Cc3cc([N+](=O)[O-])ccc3O)c2C(=O)c2c(NCCN=Cc3cc([N+](=O)[O-])ccc3O)cccc21 — 14-fold higher, 81.5 µM
- CC(=O)OC[C@]12CC[C@@H](C(=O)CBr)[C@@H]1[C@H]1CC[C@@H]3[C@@]4(C)CCCNC(C)(C)[C@@H]4CC[C@@]3(C)[C@]1(C)CC2 — 1.6-fold lower, 3.61 µM
- COc1cc2c3c(n(CCCCN)c(=O)c2cc1OC)-c1cc2c(cc1C3=O)OCO2 — 7.2-fold lower, 0.797 µM
- Cc1cc(NCCCCCCNc2cc(C)nc3cc(N(C)C)ccc23)c2ccc(N(C)C)cc2n1 — higher, > 100 µM
- N#CCCN(CCCN(CCCN(C(=O)Nc1ccccc1)c1ccccc1)C(=O)Nc1ccccc1)C(=O)Nc1ccccc1 — higher, > 100 µM
- C=CCC1(O)c2ccccc2C(=O)c2c(NCCN(CC(=O)OCC)CC(=O)OCC)cccc21 (centres undefined) — higher, > 100 µM
- Cc1ccc([N+](=O)[O-])cc1NC(=O)/C(=N/NC(=S)NN)C1SC(=S)NC1=O (centres undefined) — higher, > 100 µM
- COc1cccc(-n2nc(C)c3c(N/N=C(\C)c4ccncc4)ncnc32)c1 — higher, > 25 µM
- Cc1ccc(-c2nc(C#N)c(S(=O)(=O)n3nc(C)cc3N)o2)cc1 — 2.3-fold higher, 13.2 µM
- COc1cccc2c1ccc1nc3cccc(C(=O)N[C@H](C)CN(C)C)c3nc12 — 11-fold lower, 0.508 µM
- NC(=O)c1ccc(I)c(N=O)c1 — 5.7-fold higher, 32.8 µM
- COc1ccc2c(=O)cc(-c3ccncc3)oc2c1OC — higher, > 100 µM
- O=C(O)c1cc2ccc3ccccc3c2oc1=O — higher, > 100 µM
- O=[N+]([O-])c1ccc2c(c1)Cc1cc(N=Cc3ccc4c(c3)OCO4)ccc1-2 — higher, > 100 µM

Reference: PubChem BioAssay (NCI)
